From PMC10683025, “Discovery of a Hydroxylamine-Based Brain-Penetrant EGFR Inhibitor for Metastatic Non-Small-Cell Lung Cancer” (Journal of Medicinal Chemistry, 2023) come the findings set out here.

A word on the IC50: it is the concentration at which inhibition is half-maximal.

The target of one data set is T1, ADCK4 (Homo sapiens, UniProt Q96D53).
T1 construct: purchased Eurofins DiscoverX (KINOMEscan)
Kind of data set: KINOMEScan. The following applies: ADCK4, 1 µM; read-out: Percent Control. The format is binding.

The next data set concerns the target T2, ABL2 (Homo sapiens, UniProt P42684).
T2 construct: purchased Eurofins DiscoverX
Briefly: KINOMEScan. The format is binding. Particulars: ABL2, 1 µM; read-out: Percent Control.

The target of another data set is T3, ABL1-nonphosphorylated (Homo sapiens, UniProt P00519).
T3 construct: purchased Eurofins DiscoverX
Kind of data set: KINOMEScan. In kind it is binding. The following applies: read-out: Percent Control.

The next data set concerns the target T4, ABL1-phosphorylated (Homo sapiens, UniProt P00519).
T4 construct: purchased Eurofins DiscoverX
Briefly: KINOMEScan. Particulars: read-out: Percent Control. The format is binding.

A further data set has as its target T5, PIKFYVE (Homo sapiens, UniProt Q9Y2I7).
T5 construct: purchased Eurofins DiscoverX (KINOMEScan service)
Briefly: KINOMEScan. The format is binding. Particulars: read-out: Percent Control.

For the next data set, the target named is T6, DRAK1 (Homo sapiens, UniProt Q9UEE5).
T6 construct: purchased Eurofins DiscoverX (contract assay)
T6 sequence (Q9UEE5 1-414): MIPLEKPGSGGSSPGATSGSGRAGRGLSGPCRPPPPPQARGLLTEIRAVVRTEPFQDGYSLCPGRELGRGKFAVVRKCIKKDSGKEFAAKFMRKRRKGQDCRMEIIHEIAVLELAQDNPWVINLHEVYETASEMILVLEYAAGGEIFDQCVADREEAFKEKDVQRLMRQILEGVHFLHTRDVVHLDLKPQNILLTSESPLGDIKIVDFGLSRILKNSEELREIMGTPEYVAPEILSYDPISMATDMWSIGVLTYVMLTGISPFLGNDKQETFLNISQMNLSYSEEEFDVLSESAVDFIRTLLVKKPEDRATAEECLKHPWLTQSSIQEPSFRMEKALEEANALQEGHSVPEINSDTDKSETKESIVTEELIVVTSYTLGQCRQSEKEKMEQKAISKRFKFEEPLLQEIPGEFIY
Briefly: KinaseProfiler enzymatic radiometric assay. In kind it is biochemical. Particulars: read-out: Kinase IC50. On the procedure:
(§1) In vitro kinase activity (inhibitor binding constants (Kd) and biochemical inhibition (IC50’s)) were assessed by Eurofins DiscoverX (Kd determinations) and Eurofins Cerep (biochemical IC50 determinations).

Another data set has as its target T7, ERBB2 (Homo sapiens, UniProt P04626).
T7 construct: purchased Eurofins DiscoverX (contract assay)
Kind of data set: KinaseProfiler enzymatic radiometric assay. The format is biochemical. The following applies: read-out: Kinase IC50. The protocol:
as §1

The target of another data set is T8, LYN (Homo sapiens, UniProt P07948).
T8 construct: purchased Eurofins DiscoverX (contract assay)
T8 sequence (P07948 whole entry): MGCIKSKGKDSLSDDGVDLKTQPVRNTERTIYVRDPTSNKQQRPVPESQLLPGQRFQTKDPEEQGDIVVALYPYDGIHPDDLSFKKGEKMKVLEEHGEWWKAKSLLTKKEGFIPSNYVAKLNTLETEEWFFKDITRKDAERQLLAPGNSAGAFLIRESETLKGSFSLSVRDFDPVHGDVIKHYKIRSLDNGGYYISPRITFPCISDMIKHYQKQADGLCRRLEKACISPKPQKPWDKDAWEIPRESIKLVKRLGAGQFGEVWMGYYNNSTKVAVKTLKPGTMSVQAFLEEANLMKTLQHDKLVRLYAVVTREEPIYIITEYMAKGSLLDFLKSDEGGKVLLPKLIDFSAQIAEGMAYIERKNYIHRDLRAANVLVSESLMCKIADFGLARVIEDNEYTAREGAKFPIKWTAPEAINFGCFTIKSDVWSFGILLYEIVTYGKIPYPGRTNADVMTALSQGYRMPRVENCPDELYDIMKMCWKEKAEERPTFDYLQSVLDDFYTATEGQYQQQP
Briefly: KinaseProfiler enzymatic radiometric assay. In kind it is biochemical. Particulars: read-out: Kinase IC50. On the procedure:
as §1

In a further data set the target is BCR-ABLwt (Homo sapiens, UniProt P00519). Kind of data set: KinaseProfiler enzymatic radiometric assay. The format is biochemical. Particulars: read-out: Kinase IC50. On the procedure:
as §1

In a further data set the target is T9, ERBB4 (Homo sapiens, UniProt Q15303).
T9 construct: purchased Eurofins Cerep (KinaseProfiler, contract assay)
T9 sequence (Q15303 26-1308): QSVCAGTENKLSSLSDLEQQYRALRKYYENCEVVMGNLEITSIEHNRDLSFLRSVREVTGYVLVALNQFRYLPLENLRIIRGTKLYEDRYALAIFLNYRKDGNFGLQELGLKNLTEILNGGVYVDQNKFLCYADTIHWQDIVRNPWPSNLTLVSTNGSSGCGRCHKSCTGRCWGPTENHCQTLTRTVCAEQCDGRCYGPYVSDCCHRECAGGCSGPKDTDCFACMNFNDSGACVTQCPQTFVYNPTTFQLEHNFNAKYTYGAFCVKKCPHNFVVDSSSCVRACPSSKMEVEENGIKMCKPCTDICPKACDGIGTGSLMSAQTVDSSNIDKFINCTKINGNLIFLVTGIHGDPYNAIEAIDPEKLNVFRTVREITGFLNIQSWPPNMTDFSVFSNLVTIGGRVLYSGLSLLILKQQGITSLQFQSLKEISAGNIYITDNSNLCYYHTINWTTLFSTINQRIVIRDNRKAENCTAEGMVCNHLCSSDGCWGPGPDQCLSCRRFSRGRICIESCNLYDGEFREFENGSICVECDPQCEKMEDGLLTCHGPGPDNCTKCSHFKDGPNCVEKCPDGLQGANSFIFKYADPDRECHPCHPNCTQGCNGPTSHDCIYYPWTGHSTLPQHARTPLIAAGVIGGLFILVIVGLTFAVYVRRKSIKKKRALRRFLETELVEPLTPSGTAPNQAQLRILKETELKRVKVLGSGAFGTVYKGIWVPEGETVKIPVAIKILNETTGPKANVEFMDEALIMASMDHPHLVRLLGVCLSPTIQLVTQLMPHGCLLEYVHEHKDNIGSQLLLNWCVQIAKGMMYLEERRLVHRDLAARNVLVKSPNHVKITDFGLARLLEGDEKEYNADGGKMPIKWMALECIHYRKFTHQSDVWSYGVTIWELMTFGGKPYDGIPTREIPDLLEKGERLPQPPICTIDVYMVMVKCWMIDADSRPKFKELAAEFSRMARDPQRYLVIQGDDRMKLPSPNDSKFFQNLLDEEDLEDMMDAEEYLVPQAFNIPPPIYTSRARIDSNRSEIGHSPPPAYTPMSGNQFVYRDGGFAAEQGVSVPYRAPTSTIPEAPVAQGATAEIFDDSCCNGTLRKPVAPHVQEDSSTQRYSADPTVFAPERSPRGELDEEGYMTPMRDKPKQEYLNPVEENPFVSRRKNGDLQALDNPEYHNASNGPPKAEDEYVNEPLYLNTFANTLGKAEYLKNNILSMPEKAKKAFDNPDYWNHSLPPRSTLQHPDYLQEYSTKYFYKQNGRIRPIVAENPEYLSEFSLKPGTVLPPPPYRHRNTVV
Briefly: KinaseProfiler enzymatic radiometric assay. Particulars: read-out: Kinase IC50. In kind it is biochemical. On the procedure:
as §1

The test system of a further data set is panel of 468 kinases. Kind of data set: KINOMEScan selectivity scores.
A further data set addresses T10, ERBB2 (HER2) (Homo sapiens, UniProt P04626).
T10 construct: purchased Eurofins DiscoverX (KINOMEScan service)
Kind of data set: KINOMEScan. Particulars: read-out: Percent Control. The format is binding.

In data set [1] the target is T11, ABL1(E255K)-phosphorylated (Homo sapiens, UniProt P00519, E255K).
T11 construct: purchased Eurofins DiscoverX
Kind of data set: KINOMEScan. The format is binding. Particulars: read-out: Percent Control.
Text: (§2) Percent control was mapped onto the kinome tree using TREEspot.

Data set [2] is described as follows: Oral CNS pharmacokinetic assessment. The format is in vivo, Sprague-Dawley rats. The following applies: male, Sprague-Dawley, brain, Rat 20 mg/kg (PO). On the procedure: Animal experiments were performed at Pharmaron, Inc. and animal use was approved by Pharmaron’s Institutional Animal Care and Use Committee (IACUC) in Pharmaron (Pharmaron IACUC, Protocol #PK-M-07182022, #PK-R-06012022, and #ON-CELL-XEN-06012022) following the guidance of AAALAC. Six- to eight-week-old male Sprague-Dawley rats (approximately 200–300 g) obtained from Si Bei Fu Laboratory Animal Technology Co., six- to eight-week-old male CD1 mice (approximately 20–30 g) obtained from Si Bei Fu Laboratory Animal Technology Co., and six- to eight-week-old female BALB/c nude mice (approximately 20–30 g) obtained from Si Bei Fu Laboratory Animal Technology Co., were used in the pharmacokinetic studies. Six- to eight-week-old female BALB/c nude mice (approximately 18–22 g) obtained from Beijing Anikeeper Biotech Co., Ltd. were used in the intracranial PDX study. […]
Oral CNS pharmacokinetic assessment of 9 was done by oral gavage (formulation: 1% methylcellulose) followed by blood and brain sampling at 7 time points (0.25, 0.5, 1, 2, 4, 8, 24 h post dose) with n = 3 animals per time point (n = 21 total). […] Concentrations of 9 in the plasma and brain samples were determined using LC-MS/MS and WinNonlin 8.3 (Phoenix) was used for pharmacokinetic calculations. […]

The target in data set [3] is T12, ABL1(Q252H)-phosphorylated (Homo sapiens, UniProt P00519, Q252H).
T12 construct: purchased Eurofins DiscoverX
Briefly: KINOMEScan. In kind it is binding. Particulars: read-out: Percent Control.
Text: as §2

T1 sequence (Q96D53 whole entry): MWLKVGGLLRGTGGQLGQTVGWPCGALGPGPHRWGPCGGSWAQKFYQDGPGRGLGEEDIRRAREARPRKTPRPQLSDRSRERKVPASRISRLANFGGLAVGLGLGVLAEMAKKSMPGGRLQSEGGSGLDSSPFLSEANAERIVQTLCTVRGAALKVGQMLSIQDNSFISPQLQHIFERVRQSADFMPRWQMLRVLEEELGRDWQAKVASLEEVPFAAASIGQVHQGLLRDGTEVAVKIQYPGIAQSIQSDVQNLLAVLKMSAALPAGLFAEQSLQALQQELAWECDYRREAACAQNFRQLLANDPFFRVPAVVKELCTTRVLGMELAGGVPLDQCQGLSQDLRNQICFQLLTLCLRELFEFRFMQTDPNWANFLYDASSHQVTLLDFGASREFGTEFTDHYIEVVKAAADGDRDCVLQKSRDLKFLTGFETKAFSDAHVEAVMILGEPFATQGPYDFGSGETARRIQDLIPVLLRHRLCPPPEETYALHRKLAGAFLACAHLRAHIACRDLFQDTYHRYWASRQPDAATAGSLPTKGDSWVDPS
T2 sequence (P42684 whole entry): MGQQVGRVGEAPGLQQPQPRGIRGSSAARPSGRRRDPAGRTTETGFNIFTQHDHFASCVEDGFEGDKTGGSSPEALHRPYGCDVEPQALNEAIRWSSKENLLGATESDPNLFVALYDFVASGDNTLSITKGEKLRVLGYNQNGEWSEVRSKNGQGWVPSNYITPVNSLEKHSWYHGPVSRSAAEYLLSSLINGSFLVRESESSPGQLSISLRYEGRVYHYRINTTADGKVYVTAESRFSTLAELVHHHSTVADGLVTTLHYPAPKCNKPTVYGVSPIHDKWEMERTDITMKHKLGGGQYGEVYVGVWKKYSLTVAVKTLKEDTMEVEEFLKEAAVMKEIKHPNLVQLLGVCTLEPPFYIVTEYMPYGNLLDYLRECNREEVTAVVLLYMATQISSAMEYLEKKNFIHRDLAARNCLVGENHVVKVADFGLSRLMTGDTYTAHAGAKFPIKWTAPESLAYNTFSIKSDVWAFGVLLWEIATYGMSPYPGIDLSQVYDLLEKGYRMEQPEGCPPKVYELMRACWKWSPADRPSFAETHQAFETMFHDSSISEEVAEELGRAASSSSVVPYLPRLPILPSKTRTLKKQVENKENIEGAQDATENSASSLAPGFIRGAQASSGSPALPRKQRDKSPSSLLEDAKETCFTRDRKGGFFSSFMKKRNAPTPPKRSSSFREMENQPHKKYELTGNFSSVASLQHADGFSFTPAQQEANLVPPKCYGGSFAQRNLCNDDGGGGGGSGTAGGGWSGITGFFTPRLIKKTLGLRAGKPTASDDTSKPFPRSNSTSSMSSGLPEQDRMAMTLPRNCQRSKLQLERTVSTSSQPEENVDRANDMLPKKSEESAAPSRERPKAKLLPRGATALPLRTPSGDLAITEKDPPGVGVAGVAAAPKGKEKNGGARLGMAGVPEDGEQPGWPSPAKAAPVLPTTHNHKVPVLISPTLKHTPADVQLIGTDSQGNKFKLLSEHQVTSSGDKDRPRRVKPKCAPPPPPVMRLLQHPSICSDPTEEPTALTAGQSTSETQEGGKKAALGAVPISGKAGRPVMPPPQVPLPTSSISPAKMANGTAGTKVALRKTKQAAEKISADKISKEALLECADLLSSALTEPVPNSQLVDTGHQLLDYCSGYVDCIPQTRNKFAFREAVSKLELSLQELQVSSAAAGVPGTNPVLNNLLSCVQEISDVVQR
T10 sequence (P04626 23-1255): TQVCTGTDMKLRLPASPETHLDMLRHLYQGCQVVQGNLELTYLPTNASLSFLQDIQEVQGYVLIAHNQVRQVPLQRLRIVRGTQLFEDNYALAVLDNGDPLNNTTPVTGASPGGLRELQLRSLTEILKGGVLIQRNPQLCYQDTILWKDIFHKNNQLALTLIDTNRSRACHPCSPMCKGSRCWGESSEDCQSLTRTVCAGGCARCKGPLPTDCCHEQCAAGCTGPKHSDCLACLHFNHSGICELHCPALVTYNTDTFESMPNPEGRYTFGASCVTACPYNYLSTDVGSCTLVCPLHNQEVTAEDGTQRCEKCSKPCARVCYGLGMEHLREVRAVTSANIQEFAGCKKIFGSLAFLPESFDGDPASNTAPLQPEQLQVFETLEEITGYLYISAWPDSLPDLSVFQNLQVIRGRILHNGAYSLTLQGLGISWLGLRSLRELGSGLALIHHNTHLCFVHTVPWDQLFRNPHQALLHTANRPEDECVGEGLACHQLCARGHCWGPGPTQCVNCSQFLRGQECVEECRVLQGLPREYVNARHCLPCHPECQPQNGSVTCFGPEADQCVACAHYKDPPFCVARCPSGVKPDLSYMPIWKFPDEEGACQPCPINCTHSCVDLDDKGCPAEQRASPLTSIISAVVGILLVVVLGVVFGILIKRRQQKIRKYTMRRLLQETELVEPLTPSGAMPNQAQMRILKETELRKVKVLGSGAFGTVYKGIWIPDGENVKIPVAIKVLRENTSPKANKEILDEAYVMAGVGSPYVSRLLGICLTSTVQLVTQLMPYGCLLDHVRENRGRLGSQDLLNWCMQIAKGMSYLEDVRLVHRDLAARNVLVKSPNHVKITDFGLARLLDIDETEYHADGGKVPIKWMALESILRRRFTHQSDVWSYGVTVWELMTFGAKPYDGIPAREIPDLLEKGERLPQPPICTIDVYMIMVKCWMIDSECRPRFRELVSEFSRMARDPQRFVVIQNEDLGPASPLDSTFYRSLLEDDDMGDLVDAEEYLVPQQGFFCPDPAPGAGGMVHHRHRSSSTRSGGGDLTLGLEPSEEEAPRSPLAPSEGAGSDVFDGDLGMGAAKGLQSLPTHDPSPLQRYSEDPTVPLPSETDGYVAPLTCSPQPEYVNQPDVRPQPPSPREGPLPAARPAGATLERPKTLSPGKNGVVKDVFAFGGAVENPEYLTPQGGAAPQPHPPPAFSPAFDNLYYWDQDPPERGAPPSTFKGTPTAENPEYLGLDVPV
Text for ABL1-nonphosphorylated: as §2
Text for ABL1-phosphorylated: as §2
Text for ABL2: as §2
Text for ADCK4: as §2
Text for ERBB2 (HER2): as §2
Text for panel of 468 kinases: as §2

As for `COc1cc2ncnc(Nc3cccc(Cl)c3F)c2cc1OCCON1CCN(C)CC1` [Compound 9, N-(3-Chloro-2-fluorophenyl)-7-methoxy-6-(2-((4-methylpiperazin-1-yl)oxy)ethoxy)quinazolin-4-amine], the remaining binding at 1 µM on ADCK4 came to 79%; at ABL2 it was 64%; on ABL1-nonphosphorylated it was 8.9%; on ABL1-phosphorylated it was 7.7%; on PIKFYVE, 1.6%; on ERBB2 (HER2), 0.45%. For the same molecule, the remaining binding at 1 µM came to 6.4% in [1] and 8.8% in data set [3]. Also, the IC50 at DRAK1 stood at 1.03 µM; on ERBB2, 0.012 µM; at LYN it was 0.058 µM; at BCR-ABLwt, 0.976 µM; on ERBB4 it was 0.33 µM. Besides, the “Number of Hits S(1)” value with panel of 468 kinases (percent control < 1, of 403) came out at 2. Further, in the data set with panel of 468 kinases (percent control < 10, of 403), the “Number of Hits S(10)” value was found to be 6. The “Number of Hits S(35)” value in the data set with panel of 468 kinases (percent control < 35, of 403) is 12. Besides, in [2] (read-out: Kp brain (AUCinf)), the Kp at 24 h turned out to be 0.95. Besides, the Kp uu at 24 h in data set [2] (read-out: Kp,uu brain (AUCinf)) stood at 0.33.
